This note sets out measurements from patent publication US20060111305A1, “Metabolites of certain [1,4]diazepino[6,7,1-ij]quinoline derivatives and methods of preparation and use thereof” (Wyeth, priority 2004, published 2006).

The nature of series [1]: Dog fecal excretion and metabolite profiles after oral capsule of [14C]DCDQ. It counts as in vivo, beagle dogs. How it is done:
Blood samples were collected from the jugular vein at 2, 4, 8, 24 and 48 hour after dose administration into tubes containing potassium EDTA as the anticoagulant and then placed on ice. Aliquots of 50 μL were removed for combustion and determination of radioactivity content. Plasma was immediately obtained from the remaining blood by centrifugation at 4° C. Urine samples were collected into tubes on dry ice at intervals of 0-8, 8-24 and 24-48 hour post-dose. Fecal samples were collected at intervals of 0-8, 8-24 and 24-48 hour post-dose at room temperature, and were homogenized. The biological specimens were stored at approximately −70° C. until analysis.
Feces were weighed and homogenized in water at a volume-to-weight ratio of about 5:1. Aliquots of blood (200 μL) and fecal homogenates (0.25-0.53 gram) were placed on Combusto-cones with Combusto-pads and combusted. A model 307 Tri-Carb sample oxidizer, equipped with an Oximate-80 robotic automatic sampler (Perkin Elmer), was used for combustion of blood and fecal samples. The liberated ^14CO2 was trapped with Carbo-Sorb E carbon dioxide absorber, mixed with PermaFluor® E+ liquid scintillation cocktail, and counted on a Tri-Carb Model 3100 TR/LL liquid scintillation counter (Perkin Elmer). The efficiency of combustion was 98.9%.
Fecal homogenates were analyzed for metabolite profiles. Aliquots of 1 gram of fecal homogenate were mixed with 2 mL methanol, placed on ice for about 10 minutes and centrifuged. The supernatant was transferred to a clean tube. The residue was extracted three times with 2 mL of a water:methanol (3:7) mixture. The supernatants from each sample were combined, evaporated to about 1 mL, and centrifuged. Extraction efficiency was determined by analyzing aliquots of 10 μL of the supernatant for radioactivity. An aliquot (50-200 μL) of the supernatant was analyzed by HPLC with radioactivity flow detection for metabolite profiles. Samples were also analyzed by LC/MS to characterize the radioactive peaks.
A Waters model 2690 HPLC system (Waters Corp., Milford, Mass.) with a built-in autosampler was used for analysis. Separations were accomplished on a Phenomenex Luna C18(2) column (150×2.0 mm, 5 μm) (Phenomenex, Torrance, Calif.). The sample chamber of the autosampler was maintained at 4° C., while the column was at ambient temperature of about 20° C. A variable wavelength UV detector set to monitor 250 nm and a Flo-One β Model A525 radioactivity detector were used for data acquisition. The HPLC mobile phase consisted of 10 mM ammonium acetate, pH 4.5 (A) and acetonitrile (B), and was delivered at 0.2 mL/min. Chromatographic condition A was used for dose analysis, while condition B was used for analysis of urine and plasma, brain and fecal extracts.

Series [2] relates to cryopreserved human hepatocytes. The series is described as follows: Incubation of [14C]DCDQ with cryopreserved human hepatocytes. It counts as in vitro ADME. Particulars: 10 or 50 μM DCDQ, 4 hours. How it is done: Vials containing cryopreserved human hepatocytes were thawed in a 37° C. water bath with gentle shaking until the ice was almost melted. The vials were removed from the water bath and gentle shaking continued at room temperature for 30-60 seconds until completely thawed. The hepatocyte suspensions from each vial were immediately transferred to pre-cooled 50 mL beakers on ice. To each beaker, 12 mL of ice-cold hepatocyte suspension media was added dropwise over one minute, with occasional, gentle shaking by hand to prevent the cells from settling. The cell suspensions were transferred to a 15 mL tube and centrifuged at 100 g force for 3 min at 4° C. (Model T21 super centrifuge, Sorvall). The supernatant was discarded and the pellets were re-suspended in 4 mL of ice-cold hepatocyte culture media. The cell suspensions contained approximately 3.1×10^6 viable hepatocytes/mL. The average viability was 76.0% as determined using Trypan Blue exclusion and a hemacytometer.
The cell suspensions were distributed into 12-well plates at 1.0 mL per well. Incubations were performed using pooled hepatocytes from two donors. [^14C]DCDQ in water was added to the hepatocyte suspension at a final concentration of 10 or 50 μM. Incubations were carried out at 37° C. for 4 hours in an incubator supplied with 5% CO2. At the end of the incubation, the reaction was stopped by the addition of 200 μL cold methanol to each well. The content of each well was transferred to a 15 mL centrifuge tube and sonicated for 30 seconds. After vortex mixing with 6 mL methanol and then centrifugation, the supernatant was transferred to a clean tube and evaporated to about 0.5 mL in a TurboVap evaporator. The residue was analyzed by HPLC and LC/MS.
A Waters model 2690 HPLC system (Waters Corp., Milford, Mass.) with a built-in autosampler was used for analysis. […] A variable wavelength UV detector set to monitor 250 nm and Flo-One β Model A525 radioactivity flow detector (Perkin Elmer) with a 250 μL LQTR flow cell were used for data acquisition. […]

The nature of series [3]: Metabolites of DCDQ generated by liver microsomes and hepatocytes, LC/MS characterization (Table 6). It counts as in vitro ADME. Particulars: MM mouse, RM rat, DM dog, HM human liver microsomes; HH human hepatocytes. An excerpt: An Agilent Model 1100 HPLC system (Agilent Technologies, Palo Alto, Calif.) including an autosampler and diode array UV detector was used for LC/MS analysis. The UV detector was set to monitor 200 to 400 nm. For selected LC/MS analysis, radiochromatograms were acquired using a β-Ram model 3 radioactivity flow detector (IN/US Systems Inc., Tampa, Fla.) equipped with a solid scintillant flow cell. Separations were accomplished on a Phenomenex Luna C18(2) column (2×150 mm, 5 μm) under the same conditions as described above.
The mass spectrometer used for metabolite characterization was a Micromass Q-TOF-2 quadrupole time-of-flight hybrid mass spectrometer ([…].). The mass spectrometer was equipped with an electrospray ionization (ESI) interface and operated in the positive ionization mode. Collision energy settings of 5 and 30 eV were used for full MS and MS/MS scans, respectively. Settings for the mass spectrometer are listed below.
Mass spectra were obtained by LC/MS and LC/MS/MS analysis for DCDQ and its metabolites.
Background: Liver microsomes are a subcellular fraction often used to study metabolism.

Series [4] is described as follows: Metabolite profiles of DCDQ in human plasma and urine by LC/MS (Table 33). It counts as in vivo, healthy human subjects. To be noted: human plasma and urine, healthy subjects receiving DCDQ. How it is done: Drug administration and specimen collection were performed in a randomized, double-blinded, placebo-controlled, ascending single dose study of the safety, tolerability, pharmacokinetics, and pharmacodynamics of DCDQ administered orally to healthy subjects and subjects with schizophrenia and schizoaffective disorder. The specimens were stored at approximately −70° C. until analysis for metabolite profiles and for ratios of carbamoyl glucuronide (M6) to DCDQ.
Two subjects with medium and high exposure to DCDQ in the 25 mg multiple ascending dose study were also analyzed by LC/MS for metabolite profiles. The 8 hr plasma samples collected on day 1 and day 14 from subjects 9 and 41 were processed and analyzed as described below. No internal standard was added to the samples analyzed for metabolite profiles.
LC/MS System 1 was used for analysis of plasma and urine samples for metabolite characterization. The HPLC equipment used with this LC/MS System consisted of an Agilent Model 1100 HPLC system (Agilent Technologies, Palo Alto, Calif.) including an autosampler, binary pump and diode array UV detector. The UV detector was set to monitor 210 to 350 nm. The HPLC mobile phase consisted of 10 mM ammonium acetate, pH 4.5 (A) and methanol (B), and was delivered at 0.2 mL/min. The linear mobile phase gradient (HPLC Gradient 1) is shown below. During LC/MS sample analysis, up to 6 min of the initial flow was diverted away from the mass spectrometer prior to evaluation of metabolites.
The mass spectrometer used for metabolite characterization with LC/MS System 1 was a Finnigan LCQ-Deca ion trap mass spectrometer (Thermo Electron, San Jose, Calif.). This mass spectrometer was equipped with an electrospray ionization (ESI) interface and operated in the positive ionization mode. Settings for the LCQ mass spectrometer are listed below.
LC/MS System 2 was used to provide additional MS/MS data for characterization of DCDQ metabolites in urine. The HPLC equipment used with LC/MS System 2 consisted of a Waters model 2695 HPLC system (Waters Corp., Milford, Mass.). It was equipped with a built-in autosampler and a model 996 diode array UV detector. The UV detector was set to monitor 210-400 nm. The HPLC column, mobile phases, flow rate, diversion of flow away from the mass spectrometer and gradient were as described above for LC/MS System 1. The column temperature was 25° C.
The mass spectrometer used for metabolite characterization with LC/MS System 2 was a Micromass Quattro Micro triple quadrupole mass spectrometer (Waters Corp.). This mass spectrometer was equipped with an electrospray interface and operated in the positive ionization mode. Settings for this mass spectrometer are listed below.

Molecules are shown by their SMILES.

As for `O=C1NCCN2C[C@@H]3CCC[C@@H]3c3cccc1c32` [Metabolite M18, keto DCDQ], in series [1], the “% of total radioactivity in fecal extracts” value was “up to 16.4%” and the “metabolite detected in feces” value is on record as “detected”.

On to `C1=NCCN2C[C@@H]3CCC[C@@H]3c3cccc1c32` [Metabolite P3, DCDQ imine], for which, in series [2], the “metabolite detected in human hepatocyte incubations” value was “observed”. Also, the Source entry in series [3] is “MM, RM, DM, HM, HH”. For the same compound, the “Matrix (in which DCDQ / metabolite was characterized by LC/MS)” value in series [4] is “P, U”.
